Results from PMC9653173, “Trotabresib (CC-90010) in combination with adjuvant temozolomide or concomitant temozolomide plus radiotherapy in patients with newly diagnosed glioblastoma” (Neuro-Oncology Advances, 2022).
Where two headings read alike, the source gives them in different places.

Assays:
MYC = details: in vitro; cited from earlier work
glioblastoma = tested on: glioblastoma; design: method as in earlier work; details: study discontinued; cited from earlier work
rhabdomyosarcoma cells = tested on: rhabdomyosarcoma cells; design: method as in PMID 32200036; details: cited from earlier work
[1] = tested on: patients with newly diagnosed glioblastoma
From the text: The phase Ib, dose-escalation part of this study explored escalating oral doses of trotabresib in combination with TMZ in the adjuvant setting and with TMZ plus RT in the concomitant setting. […] Dose-escalation decisions were made by the safety review committee, based on all available safety, pharmacokinetics, pharmacodynamics, and preliminary efficacy information, and a calculation of risk assessment using a Bayesian logistic regression model.
The primary endpoints of the study were to determine the safety and tolerability, maximum tolerated dose, and/or recommended phase II dose (RP2D) of trotabresib in combination with TMZ as adjuvant therapy, and with TMZ and RT as concomitant therapy. […] Trotabresib pharmacodynamics was an exploratory endpoint.
Adverse events (AEs) were classified using the Medical Dictionary for Regulatory Activities v18.1 or higher system organ class and preferred term. Severity of AEs was graded based on the patient’s symptoms according to the National Cancer Institute Common Terminology Criteria for Adverse Events v5.0.[35] Dose-limiting toxicities (DLTs) were defined as any of the toxicities described in Supplementary Table S2 occurring within the DLT assessment period (cycle 1 [28 days]), unless the event could clearly be determined to be unrelated to trotabresib. Screening MRI scans were performed after surgical resection and within 28 days (+3 days) prior to initiation of study treatment. Subsequent tumor assessments by MRI or CT were performed at week 10 during the concomitant treatment period and at the end of every other treatment cycle from cycle 2 onwards during the adjuvant and trotabresib monotherapy treatment periods. Best overall response (BOR) was evaluated as complete response (CR), partial response (PR), SD, progressive disease (PD), or not evaluable, according to Response Assessment in Neuro-Oncology criteria for high-grade glioma.[36] Plasma samples were collected during the first treatment cycle for investigation of trotabresib pharmacokinetics and pharmacodynamics. Plasma pharmacokinetic parameters assessed included peak plasma concentration (Cmax), time to peak plasma concentration (tmax), area under the plasma concentration–time curve (AUC), and terminal half-life (t½). Pharmacodynamic markers assessed included blood levels of CCR1 and HEXIM1 mRNA, which are established markers of BET inhibitor target engagement.[17],[22],[37],[38]

breast cancer cells = tested on: breast cancer cells; design: method as in PMID 32848091; details: cited from earlier work
[2] = adjuvant overall (N = 18), related to labelled drug(s)
[3] = concomitant overall (N = 14), related to labelled drug(s)

Cc1sc2c(c1C)C(c1ccc(Cl)cc1)=N[C@@H](CC(=O)OC(C)(C)C)c1nnc(C)n1-2 [JQ1, reference compound]
MYC expression (MYC): downregulated in vitro

Cc1sc2c(c1C)C(c1ccc(Cl)cc1)=N[C@@H](CC(=O)Nc1ccc(O)cc1)c1nnc(C)n1-2 [OTX015]
Clinical activity (primary endpoint 6-month PFS) (glioblastoma): lack of clinical activity | Antitumor activity as a single agent (rhabdomyosarcoma cells): demonstrated antitumor activity as a single agent | Effect on ionizing radiation (rhabdomyosarcoma cells): potentiated the effects of ionizing radiation

Cn1nnc2c(C(N)=O)ncn2c1=O [TMZ, temozolomide]
ALT increased TRAE, grade 3/4 [1, 2]: 1 (6) n (%) | AST increased TRAE, any grade [1, 2]: 2 (11) n (%) | AST increased TRAE, grade 3/4 [1, 2]: 0 n (%) | Acneiform dermatitis TRAE, any grade [1, 2]: 1 (6) n (%) | Acneiform dermatitis TRAE, grade 3/4 [1, 2]: 0 n (%) | Anemia TRAE, any grade [1, 2]: 3 (17) n (%) | Anemia TRAE, grade 3/4 [1, 2]: 0 n (%) | Any TRAE, any grade [1, 2]: 17 (94) n (%) | Any TRAE, grade 3/4 [1, 2]: 10 (56) n (%) | Asthenia TRAE, any grade [1, 2]: 6 (33) n (%) | Asthenia TRAE, grade 3/4 [1, 2]: 1 (6) n (%) | Blood bilirubin increased TRAE, any grade [1, 2]: 0 n (%) | Blood bilirubin increased TRAE, grade 3/4 [1, 2]: 0 n (%) | Decreased appetite TRAE, any grade [1, 2]: 6 (33) n (%) | Decreased appetite TRAE, grade 3/4 [1, 2]: 0 n (%) | Diarrhea TRAE, any grade [1, 2]: 5 (28) n (%) | Diarrhea TRAE, grade 3/4 [1, 2]: 0 n (%) | Dysgeusia TRAE, any grade [1, 2]: 4 (22) n (%) | Dysgeusia TRAE, grade 3/4 [1, 2]: 0 n (%) | Dyspepsia TRAE, any grade [1, 2]: 2 (11) n (%) | Dyspepsia TRAE, grade 3/4 [1, 2]: 0 n (%) | Fatigue TRAE, any grade [1, 2]: 2 (11) n (%) | Fatigue TRAE, grade 3/4 [1, 2]: 0 n (%) | Hyperbilirubinemia TRAE, any grade [1, 2]: 3 (17) n (%) | Hyperbilirubinemia TRAE, grade 3/4 [1, 2]: 0 n (%) | Hyperglycemia TRAE, any grade [1, 2]: 1 (6) n (%) | Hyperglycemia TRAE, grade 3/4 [1, 2]: 0 n (%) | Hypophosphatemia TRAE, any grade [1, 2]: 1 (6) n (%) | Hypophosphatemia TRAE, grade 3/4 [1, 2]: 0 n (%) | Hypotension TRAE, any grade [1, 2]: 0 n (%) | Hypotension TRAE, grade 3/4 [1, 2]: 0 n (%) | Insomnia TRAE, any grade [1, 2]: 1 (6) n (%) | Insomnia TRAE, grade 3/4 [1, 2]: 0 n (%) | Intracranial hemorrhage TRAE, any grade [1, 2]: 0 n (%) | Intracranial hemorrhage TRAE, grade 3/4 [1, 2]: 0 n (%) | Leukopenia TRAE, any grade [1, 2]: 2 (11) n (%) | Leukopenia TRAE, grade 3/4 [1, 2]: 0 n (%) | Lymphopenia TRAE, any grade [1, 2]: 2 (11) n (%) | Lymphopenia TRAE, grade 3/4 [1, 2]: 1 (6) n (%) | Nausea TRAE, any grade [1, 2]: 12 (67) n (%) | Nausea TRAE, grade 3/4 [1, 2]: 0 n (%) | Neutropenia TRAE, any grade [1, 2]: 7 (39) n (%) | Neutropenia TRAE, grade 3/4 [1, 2]: 4 (22) n (%) | Pruritus TRAE, any grade [1, 2]: 0 n (%) | Pruritus TRAE, grade 3/4 [1, 2]: 0 n (%) | Rash TRAE, any grade [1, 2]: 1 (6) n (%) | Rash TRAE, grade 3/4 [1, 2]: 0 n (%) | Seizure TRAE, any grade [1, 2]: 0 n (%) | Seizure TRAE, grade 3/4 [1, 2]: 0 n (%) | Thrombocytopenia TRAE, any grade [1, 2]: 13 (72) n (%) | Thrombocytopenia TRAE, grade 3/4 [1, 2]: 9 (50) n (%) | Vomiting TRAE, any grade [1, 2]: 7 (39) n (%) | Vomiting TRAE, grade 3/4 [1, 2]: 0 n (%) | ALT increased TRAE, any grade [1, 3]: 1 (7) n (%) | ALT increased TRAE, grade 3/4 [1, 3]: 1 (7) n (%) | AST increased TRAE, any grade [1, 3]: 1 (7) n (%) | AST increased TRAE, grade 3/4 [1, 3]: 0 n (%) | Acneiform dermatitis TRAE, any grade [1, 3]: 2 (14) n (%) | Acneiform dermatitis TRAE, grade 3/4 [1, 3]: 0 n (%) | Anemia TRAE, any grade [1, 3]: 4 (29) n (%) | Anemia TRAE, grade 3/4 [1, 3]: 2 (14) n (%) | Any TRAE, any grade [1, 3]: 14 (100) n (%) | Any TRAE, grade 3/4 [1, 3]: 9 (64) n (%) | Asthenia TRAE, any grade [1, 3]: 4 (29) n (%) | Asthenia TRAE, grade 3/4 [1, 3]: 0 n (%) | Blood bilirubin increased TRAE, any grade [1, 3]: 1 (7) n (%) | Blood bilirubin increased TRAE, grade 3/4 [1, 3]: 0 n (%) | Decreased appetite TRAE, any grade [1, 3]: 4 (29) n (%) | Decreased appetite TRAE, grade 3/4 [1, 3]: 0 n (%) | Diarrhea TRAE, any grade [1, 3]: 3 (21) n (%) | Diarrhea TRAE, grade 3/4 [1, 3]: 0 n (%) | Dysgeusia TRAE, any grade [1, 3]: 4 (29) n (%) | Dysgeusia TRAE, grade 3/4 [1, 3]: 0 n (%) | Dyspepsia TRAE, any grade [1, 3]: 2 (14) n (%) | Dyspepsia TRAE, grade 3/4 [1, 3]: 0 n (%) | Fatigue TRAE, any grade [1, 3]: 5 (36) n (%) | Fatigue TRAE, grade 3/4 [1, 3]: 1 (7) n (%) | Hyperbilirubinemia TRAE, any grade [1, 3]: 2 (14) n (%) | Hyperbilirubinemia TRAE, grade 3/4 [1, 3]: 0 n (%) | Hyperglycemia TRAE, any grade [1, 3]: 0 n (%) | Hyperglycemia TRAE, grade 3/4 [1, 3]: 0 n (%) | Hypophosphatemia TRAE, any grade [1, 3]: 1 (7) n (%) | Hypophosphatemia TRAE, grade 3/4 [1, 3]: 0 n (%) | Hypotension TRAE, any grade [1, 3]: 0 n (%) | Hypotension TRAE, grade 3/4 [1, 3]: 0 n (%) | Insomnia TRAE, any grade [1, 3]: 0 n (%) | Insomnia TRAE, grade 3/4 [1, 3]: 0 n (%) | Intracranial hemorrhage TRAE, any grade [1, 3]: 0 n (%) | Intracranial hemorrhage TRAE, grade 3/4 [1, 3]: 0 n (%) | Leukopenia TRAE, any grade [1, 3]: 1 (7) n (%) | Leukopenia TRAE, grade 3/4 [1, 3]: 0 n (%) | Lymphopenia TRAE, any grade [1, 3]: 3 (21) n (%) | Lymphopenia TRAE, grade 3/4 [1, 3]: 1 (7) n (%) | Nausea TRAE, any grade [1, 3]: 11 (79) n (%) | Nausea TRAE, grade 3/4 [1, 3]: 0 n (%) | Neutropenia TRAE, any grade [1, 3]: 6 (43) n (%) | Neutropenia TRAE, grade 3/4 [1, 3]: 4 (29) n (%) | Pruritus TRAE, any grade [1, 3]: 0 n (%) | Pruritus TRAE, grade 3/4 [1, 3]: 0 n (%) | Rash TRAE, any grade [1, 3]: 0 n (%) | Rash TRAE, grade 3/4 [1, 3]: 0 n (%) | Seizure TRAE, any grade [1, 3]: 0 n (%) | Seizure TRAE, grade 3/4 [1, 3]: 0 n (%) | Thrombocytopenia TRAE, any grade [1, 3]: 10 (71) n (%) | Thrombocytopenia TRAE, grade 3/4 [1, 3]: 7 (50) n (%) | Vomiting TRAE, any grade [1, 3]: 8 (57) n (%) | Vomiting TRAE, grade 3/4 [1, 3]: 0 n (%) | ALT increased TRAE, any grade ([1]; human, in vivo): 2 (11) n (%) | TEAEs leading to discontinuation of the labelled study drug(s), patients ([1]; human, in vivo): 2 (11) 2 (11) 2 (11) n (%) | TRAEs leading to discontinuation of TMZ, related to labelled drug(s) ([1]; human, in vivo): 1 (6) 1 (6) 1 (6) n (%) | TRAEs leading to discontinuation of any study drug, related to labelled drug(s) ([1]; human, in vivo): 1 (6) 1 (6) 1 (6) n (%) | TRAEs leading to discontinuation of trotabresib, related to labelled drug(s) ([1]; human, in vivo): 1 (6) 1 (6) 1 (6) n (%)

CCNC(=O)C[C@@H]1N=C(c2ccc(Cl)cc2)c2cc(OC)ccc2-n2c(C)nnc21 [iBET-762]
Expression of the HER2-regulated gene TUBB3 (breast cancer cells): upregulated expression | Sensitivity to vinorelbine (breast cancer cells; in vitro and in PDX models): increased sensitivity to vinorelbine
